According to patent US8796457B2, “Compound useful for the treatment of degenerative and inflammatory diseases” (Galapagos NV, priority 2009, dated 2014):

Experiments:
[1] = test system: HeLa cells, STAT signalling; test: JAK-STAT signalling assay (pSTAT1(2)-luciferase reporter, OSM trigger); format: cell-based; settings: human OSM 33 ng/mL
Protocol: HeLa cells were maintained in Dulbecco's Modified Eagle's Medium (DMEM) containing 10% heat inactivated fetal calf serum, 100 U/mL penicillin and 100 μg/mL streptomycin. HeLa cells were used at 70% confluence for transfection. 20,000 cells in 87 μL cell culture medium were transiently transfected with 40 ng pSTAT1(2)-luciferase reporter (Panomics), 8 ng of LacZ reporter as internal control reporter and 52 ng of pBSK using 0.32 μL Jet-PEI (Polyplus) as transfection reagent per well in 96-well plate format. After overnight incubation at 37° C., 10% CO2, transfection medium was removed. 75 μL of DMEM+1.5% inactivated fetal calf serum was added. 15 μL of compound at 6.7× concentration was added for 60 min and then 10 μL of human OSM (Peprotech) at 33 ng/mL final concentration. […]
40 μL of cell lysate was used to read β-galactosidase activity by adding 180 μL βGal solution (30 μl ONPG 4 mg/mL+150 μL β-Galactosidase buffer (0.06 M Na2HPO4, 0.04 M NaH2PO4, 1 mM MgCl2)) for 20 min. The reaction was stopped by addition of 50 μL Na2CO3 1 M. Absorbance was read at 405 nm
Luciferase activity was measured using 40 μL cell lysate plus 40 μl of Steadylite® as described by the manufacturer (Perkin Elmer), on the Envision (Perkin Elmer). […]

[2] = test system: collagen induced arthritis; test: Rat collagen induced arthritis (CIA) model; format: in vivo
Protocol: Completed Freund's adjuvant (CFA) and incomplete Freund's adjuvant (IFA) were purchased from Difco. Bovine collagen type II (CII), lipopolysaccharide (LPS), and Enbrel were obtained from Chondrex (Isle d'Abeau, France); Sigma (P4252, L'Isle d'Abeau, France), Whyett (25 mg injectable syringe, France) Acros Organics (Palo Alto, Calif.), respectively. All other reagents used were of reagent grade and all solvents were of analytical grade.
Dark Agouti rats (male, 7-8 weeks old) are obtained from Harlan Laboratories (Maison-Alfort, France). DBA/1J mice (male, 7 weeks old) were obtained from Centre d'Elevage et de Reproduction JANVIER (CERJ) (Laval, France). Rats and mice were kept on a 12 hours light/dark cycle (0700-1900). The temperature was maintained at 22° C., and food and water were provided ad libitum.
One day before the experiment, CII solution (2 mg/mL) was prepared with 0.05 M acetic acid and stored at 4° C. Just before the immunization, equal volumes of adjuvant (IFA) and CII were mixed by a homogenizer in a pre-cooled glass bottle in an ice water bath. Extra adjuvant and prolonged homogenization might be required if an emulsion is not formed.
Rat: 0.2 mL of the emulsion is injected intradermally at the base of the tail of each rat on day 1, a second booster intradermal injection (CII solution at 2 mg/mL in CFA 0.1 mL saline) is performed on day 9. This immunization method is modified from published methods (Sims N A et al., (2004) Targeting osteoclasts with zoledronic acid prevents bone destruction in collagen-induced arthritis, Arthritis Rheum. 50 2338-2346; Jou et al., 2005).
The therapeutic effects of the test compounds were tested in the rat or mouse CIA model. Animals were randomly divided into equal groups and each group contained 10 animals. All rats are immunized on day 1 and boosted on day 9. All mice were immunized on day 1 and boosted on day 21. Therapeutic dosing lasted from day 16 to day 30. The negative control group was treated with vehicle (MC 0.5%) and the positive control group with Enbrel (10 mg/kg, 3× week., s.c.). A compound of interest was typically tested at 3 doses, e.g. 3, 10, 30 mg/kg, p.o.
Arthritis was scored according the method of Khachigian 2006, Lin et al 2007 and Nishida et al. 2004). […]
AUC of clinical score (AUC score): The area under the curve (AUC) from day 1 to day 14 was calculated for each individual rat. The AUC of each animal was divided by the average AUC obtained for the vehicle in the study from which the data on that animal was obtained and multiplied by 100 (i.e. the AUC was expressed as a percentage of the average vehicle AUC per study).
Clinical score increase from day 1 to day 14 (End point score): The clinical score difference for each animal was divided by the average clinical score difference obtained for the vehicle in the study from which the data on that animal was obtained and multiplied by 100 (i.e. the difference was expressed as a percentage of the average clinical score difference for the vehicle per study).
Post-mortem, a Larsen' score was derived for both hind paws of all rats by at least 2 scientists. The average of these scores was calculated to obtain one Larsen' score per rat. […]

Structure (SMILES): CC1(C)CN(C(=O)c2ccc(-c3cccc4nc(NC(=O)C5CC5)nn34)cc2)C1 [Compound 1, Cyclopropanecarboxylic acid{5-[4-(3,3-dimethyl-azetidine-1-carbonyl)-phenyl]-[1,2,4]triazolo[1,5-a]pyridin-2-yl}-amide]
- EC50 [1]: 539 ± 130 nM
- dose from which significant improvement of paw swelling was seen ([2]; rat CIA): ≥ 1 mg/kg
- dose from which significant improvement of the AUC of the clinical score was seen ([2]; rat CIA): ≥ 10 mg/kg
- dose from which significant improvement of the Larsen' score was seen ([2]; rat CIA): ≥ 30 mg/kg
- dose from which significant improvement of the endpoint clinical score was seen ([2]; rat CIA): ≥ 1 mg/kg
- efficacy in the rat CIA study ([2]; rat, 30, 10, 3, and 1 mg/kg): efficacious in all readouts
